Laboratory results as given in PubChem BioAssay (NCI).
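Cells were grown in 96-well plates and exposed to each compound for 48 hours at five concentrations; endpoints were interpolated linearly between bracketing concentrations, or set to the highest concentration if not reached. GI50 is the concentration that inhibits growth by half. The concentration for full growth arrest is given as TGI.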

What was measured:
Assay in all cases: inhibition of tumour cell growth, NCI panel, 48 h
T-47D breast = tested on: T-47D breast
HOP-92 NSCLC = tested on: HOP-92 NSCLC
UO-31 renal = tested on: UO-31 renal
LOX IMVI melanoma = tested on: LOX IMVI melanoma
CAKI-1 renal = tested on: CAKI-1 renal
MALME-3M melanoma = tested on: MALME-3M melanoma
SK-MEL-28 melanoma = tested on: SK-MEL-28 melanoma
COLO 205 colon = tested on: COLO 205 colon
HL-60(TB) leukemia = tested on: HL-60(TB) leukemia
TK-10 renal = tested on: TK-10 renal
BT-549 breast = tested on: BT-549 breast
SR leukemia = tested on: SR leukemia
OVCAR-3 ovarian = tested on: OVCAR-3 ovarian
K-562 leukemia = tested on: K-562 leukemia
SK-OV-3 ovarian = tested on: SK-OV-3 ovarian
HOP-62 NSCLC = tested on: HOP-62 NSCLC
SNB-75 CNS = tested on: SNB-75 CNS
MDA-MB-231 breast = tested on: MDA-MB-231 breast
A498 renal = tested on: A498 renal
UACC-62 melanoma = tested on: UACC-62 melanoma
M14 melanoma = tested on: M14 melanoma
OVCAR-4 ovarian = tested on: OVCAR-4 ovarian
A549 NSCLC = tested on: A549 NSCLC
NCI/ADR-RES ovarian = tested on: NCI/ADR-RES ovarian
MCF7 breast = tested on: MCF7 breast
RPMI-8226 leukemia = tested on: RPMI-8226 leukemia
HT29 colon = tested on: HT29 colon
SF-268 CNS = tested on: SF-268 CNS
SNB-19 CNS = tested on: SNB-19 CNS
OVCAR-8 ovarian = tested on: OVCAR-8 ovarian
U251 CNS = tested on: U251 CNS
MOLT-4 leukemia = tested on: MOLT-4 leukemia
SF-295 CNS = tested on: SF-295 CNS
NCI-H226 lung = tested on: NCI-H226 lung
RXF 393 renal = tested on: RXF 393 renal
SK-MEL-2 melanoma = tested on: SK-MEL-2 melanoma
PC-3 prostate = tested on: PC-3 prostate
MDA-MB-468 breast = tested on: MDA-MB-468 breast
KM12 colon = tested on: KM12 colon
DU-145 prostate = tested on: DU-145 prostate
OVCAR-5 ovarian = tested on: OVCAR-5 ovarian
NCI-H23 lung = tested on: NCI-H23 lung
EKVX NSCLC = tested on: EKVX NSCLC
HCT-116 colon = tested on: HCT-116 colon
786-0 renal = tested on: 786-0 renal
MDA-MB-435 = tested on: MDA-MB-435
SK-MEL-5 melanoma = tested on: SK-MEL-5 melanoma
SN12C renal = tested on: SN12C renal
HCT-15 colon = tested on: HCT-15 colon
IGROV1 ovarian = tested on: IGROV1 ovarian
HS 578T breast = tested on: HS 578T breast
ACHN renal = tested on: ACHN renal
SF-539 CNS = tested on: SF-539 CNS
NCI-H460 lung = tested on: NCI-H460 lung
NCI-H522 lung = tested on: NCI-H522 lung
HCC-2998 colon = tested on: HCC-2998 colon
CCRF-CEM leukemia = tested on: CCRF-CEM leukemia
SW-620 colon = tested on: SW-620 colon
UACC-257 melanoma = tested on: UACC-257 melanoma

`COc1ccc(Nc2nc(N)n(Cc3cccc(Br)c3)n2)cc1` was tested, and the GI50 (T-47D breast) was 44.5 µM, the TGI (T-47D breast) was > 100 µM and the GI50 (HOP-92 NSCLC) was 11.4 µM. For the same compound, the TGI (HOP-92 NSCLC) was 68.4 µM, the GI50 (UO-31 renal) was 17 µM and the TGI (UO-31 renal) was > 100 µM. For the same compound, the GI50 (LOX IMVI melanoma) was 31.5 µM, the TGI (LOX IMVI melanoma) was > 100 µM and the GI50 (CAKI-1 renal) was 15 µM. The TGI (CAKI-1 renal) was > 100 µM, the GI50 (MALME-3M melanoma) was 27.2 µM and the TGI (MALME-3M melanoma) was > 100 µM. The GI50 (SK-MEL-28 melanoma) was 35.7 µM, the TGI (SK-MEL-28 melanoma) was > 100 µM and the GI50 (COLO 205 colon) was 48.4 µM. The TGI (COLO 205 colon) was > 100 µM, the GI50 (HL-60(TB) leukemia) was 18.4 µM and the TGI (HL-60(TB) leukemia) was > 100 µM. The GI50 (TK-10 renal) was 61.7 µM, the TGI (TK-10 renal) was > 100 µM and the GI50 (BT-549 breast) was 14.5 µM. The TGI (BT-549 breast) was > 100 µM, the GI50 (SR leukemia) was 91.7 µM and the TGI (SR leukemia) was > 100 µM. The GI50 (OVCAR-3 ovarian) was 35.8 µM, the TGI (OVCAR-3 ovarian) was > 100 µM and the GI50 (K-562 leukemia) was 28.7 µM. For the same compound, the TGI (K-562 leukemia) was > 100 µM, the GI50 (SK-OV-3 ovarian) was 93.2 µM and the TGI (SK-OV-3 ovarian) was > 100 µM. The GI50 (HOP-62 NSCLC) was > 100 µM, the TGI (HOP-62 NSCLC) was > 100 µM and the GI50 (SNB-75 CNS) was 13.9 µM. For the same compound, the TGI (SNB-75 CNS) was > 100 µM, the GI50 (MDA-MB-231 breast) was 37.1 µM and the TGI (MDA-MB-231 breast) was > 100 µM. For the same compound, the GI50 (A498 renal) was 15.9 µM, the TGI (A498 renal) was 76.4 µM and the GI50 (UACC-62 melanoma) was 32.8 µM. For the same compound, the TGI (UACC-62 melanoma) was > 100 µM, the GI50 (M14 melanoma) was 36.8 µM and the TGI (M14 melanoma) was > 100 µM. The GI50 (OVCAR-4 ovarian) was 31.7 µM, the TGI (OVCAR-4 ovarian) was > 100 µM and the GI50 (A549 NSCLC) was 36 µM. The TGI (A549 NSCLC) was > 100 µM, the GI50 (NCI/ADR-RES ovarian) was 33.3 µM and the TGI (NCI/ADR-RES ovarian) was > 100 µM. The GI50 (MCF7 breast) was 26 µM, the TGI (MCF7 breast) was > 100 µM and the GI50 (RPMI-8226 leukemia) was 29.5 µM. The TGI (RPMI-8226 leukemia) was > 100 µM, the GI50 (HT29 colon) was 64.2 µM and the TGI (HT29 colon) was > 100 µM. For the same compound, the GI50 (SF-268 CNS) was 27.2 µM, the TGI (SF-268 CNS) was > 100 µM and the GI50 (SNB-19 CNS) was 48.3 µM. The TGI (SNB-19 CNS) was > 100 µM, the GI50 (OVCAR-8 ovarian) was 42.1 µM and the TGI (OVCAR-8 ovarian) was > 100 µM. The GI50 (U251 CNS) was 42.1 µM, the TGI (U251 CNS) was > 100 µM and the GI50 (MOLT-4 leukemia) was 26.9 µM. The TGI (MOLT-4 leukemia) was > 100 µM, the GI50 (SF-295 CNS) was 28 µM and the TGI (SF-295 CNS) was > 100 µM. The GI50 (NCI-H226 lung) was 27.2 µM, the TGI (NCI-H226 lung) was > 100 µM and the GI50 (RXF 393 renal) was 14.3 µM. For the same compound, the TGI (RXF 393 renal) was 66 µM, the GI50 (SK-MEL-2 melanoma) was 31.1 µM and the TGI (SK-MEL-2 melanoma) was > 100 µM. For the same compound, the GI50 (PC-3 prostate) was 25.9 µM, the TGI (PC-3 prostate) was > 100 µM and the GI50 (MDA-MB-468 breast) was 19.3 µM. The TGI (MDA-MB-468 breast) was 65.5 µM, the GI50 (KM12 colon) was 26.7 µM and the TGI (KM12 colon) was > 100 µM. The GI50 (DU-145 prostate) was 65.6 µM, the TGI (DU-145 prostate) was > 100 µM and the GI50 (OVCAR-5 ovarian) was 50.3 µM. For the same compound, the TGI (OVCAR-5 ovarian) was > 100 µM, the GI50 (NCI-H23 lung) was 32.7 µM and the TGI (NCI-H23 lung) was > 100 µM. For the same compound, the GI50 (EKVX NSCLC) was 18 µM, the TGI (EKVX NSCLC) was > 100 µM and the GI50 (HCT-116 colon) was 27.5 µM. The TGI (HCT-116 colon) was > 100 µM, the GI50 (786-0 renal) was 34.3 µM and the TGI (786-0 renal) was > 100 µM. The GI50 (MDA-MB-435) was 32.8 µM, the TGI (MDA-MB-435) was > 100 µM and the GI50 (SK-MEL-5 melanoma) was 19.5 µM. The TGI (SK-MEL-5 melanoma) was 44 µM, the GI50 (SN12C renal) was 33.4 µM and the TGI (SN12C renal) was > 100 µM. For the same compound, the GI50 (HCT-15 colon) was 30.8 µM, the TGI (HCT-15 colon) was > 100 µM and the GI50 (IGROV1 ovarian) was 26.1 µM. For the same compound, the TGI (IGROV1 ovarian) was > 100 µM, the GI50 (HS 578T breast) was 15.4 µM and the TGI (HS 578T breast) was > 100 µM. The GI50 (ACHN renal) was 29.7 µM, the TGI (ACHN renal) was > 100 µM and the GI50 (SF-539 CNS) was 29.6 µM. For the same compound, the TGI (SF-539 CNS) was > 100 µM, the GI50 (NCI-H460 lung) was 36.2 µM and the TGI (NCI-H460 lung) was > 100 µM. The GI50 (NCI-H522 lung) was 26.5 µM, the TGI (NCI-H522 lung) was > 100 µM and the GI50 (HCC-2998 colon) was 34.3 µM. The TGI (HCC-2998 colon) was > 100 µM, the GI50 (CCRF-CEM leukemia) was 26.3 µM and the TGI (CCRF-CEM leukemia) was > 100 µM. For the same compound, the GI50 (SW-620 colon) was 57.5 µM, the TGI (SW-620 colon) was > 100 µM and the GI50 (UACC-257 melanoma) was 38.3 µM. For the same compound, the TGI (UACC-257 melanoma) was > 100 µM.
